Active and inactive are the calls of the source. No cut-off for these calls is given here.
Assays:
[1] = biological target: T1, Nitric oxide synthase, inducible (Mus musculus, UniProt P29477); assay: Inhibition of recombinant mouse iNOS using [3H]L-arginine as substrate preincubated for 15 mins followed by NADPH addition measured after 20 mins in presence of FMN/FAD by liquid scintillation counting method
T1 sequence (P29477 whole entry): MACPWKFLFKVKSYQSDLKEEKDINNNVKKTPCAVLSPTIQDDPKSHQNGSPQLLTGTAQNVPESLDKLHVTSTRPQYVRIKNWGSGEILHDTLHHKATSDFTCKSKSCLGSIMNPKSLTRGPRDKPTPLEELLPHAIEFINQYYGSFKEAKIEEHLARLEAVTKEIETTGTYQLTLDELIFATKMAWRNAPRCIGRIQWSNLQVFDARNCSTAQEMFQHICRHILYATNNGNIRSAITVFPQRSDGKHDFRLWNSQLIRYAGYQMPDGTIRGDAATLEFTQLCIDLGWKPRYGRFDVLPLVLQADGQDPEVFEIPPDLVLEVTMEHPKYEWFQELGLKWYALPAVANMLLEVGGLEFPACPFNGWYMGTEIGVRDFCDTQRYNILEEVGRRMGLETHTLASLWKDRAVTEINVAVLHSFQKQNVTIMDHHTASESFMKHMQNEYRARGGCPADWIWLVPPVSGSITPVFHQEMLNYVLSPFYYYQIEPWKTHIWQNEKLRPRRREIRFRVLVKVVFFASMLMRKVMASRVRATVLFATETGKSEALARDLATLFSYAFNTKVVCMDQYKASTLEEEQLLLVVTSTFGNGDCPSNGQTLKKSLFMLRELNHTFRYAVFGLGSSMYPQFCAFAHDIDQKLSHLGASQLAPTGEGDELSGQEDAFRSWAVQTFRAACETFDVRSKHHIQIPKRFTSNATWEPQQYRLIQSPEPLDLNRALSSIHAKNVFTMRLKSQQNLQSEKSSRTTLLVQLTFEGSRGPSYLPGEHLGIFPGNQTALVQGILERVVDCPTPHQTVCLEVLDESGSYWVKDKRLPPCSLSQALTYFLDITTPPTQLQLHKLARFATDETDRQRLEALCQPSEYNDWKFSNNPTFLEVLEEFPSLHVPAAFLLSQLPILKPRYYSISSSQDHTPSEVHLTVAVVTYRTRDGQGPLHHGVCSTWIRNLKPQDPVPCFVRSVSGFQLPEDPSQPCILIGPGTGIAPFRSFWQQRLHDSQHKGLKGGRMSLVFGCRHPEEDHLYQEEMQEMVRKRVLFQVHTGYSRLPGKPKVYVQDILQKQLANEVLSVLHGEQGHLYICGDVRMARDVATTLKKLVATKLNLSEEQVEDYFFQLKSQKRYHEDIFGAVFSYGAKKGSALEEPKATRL

Nitric oxide synthase 3 = biological target: T2, Nitric oxide synthase 3 (Bos taurus, UniProt P29473); assay: Inhibition of recombinant bovine eNOS using [3H]L-arginine as substrate preincubated for 15 mins followed by NADPH addition measured after 20 mins in presence of FMN/FAD by liquid scintillation counting method
T2 sequence (P29473 whole entry): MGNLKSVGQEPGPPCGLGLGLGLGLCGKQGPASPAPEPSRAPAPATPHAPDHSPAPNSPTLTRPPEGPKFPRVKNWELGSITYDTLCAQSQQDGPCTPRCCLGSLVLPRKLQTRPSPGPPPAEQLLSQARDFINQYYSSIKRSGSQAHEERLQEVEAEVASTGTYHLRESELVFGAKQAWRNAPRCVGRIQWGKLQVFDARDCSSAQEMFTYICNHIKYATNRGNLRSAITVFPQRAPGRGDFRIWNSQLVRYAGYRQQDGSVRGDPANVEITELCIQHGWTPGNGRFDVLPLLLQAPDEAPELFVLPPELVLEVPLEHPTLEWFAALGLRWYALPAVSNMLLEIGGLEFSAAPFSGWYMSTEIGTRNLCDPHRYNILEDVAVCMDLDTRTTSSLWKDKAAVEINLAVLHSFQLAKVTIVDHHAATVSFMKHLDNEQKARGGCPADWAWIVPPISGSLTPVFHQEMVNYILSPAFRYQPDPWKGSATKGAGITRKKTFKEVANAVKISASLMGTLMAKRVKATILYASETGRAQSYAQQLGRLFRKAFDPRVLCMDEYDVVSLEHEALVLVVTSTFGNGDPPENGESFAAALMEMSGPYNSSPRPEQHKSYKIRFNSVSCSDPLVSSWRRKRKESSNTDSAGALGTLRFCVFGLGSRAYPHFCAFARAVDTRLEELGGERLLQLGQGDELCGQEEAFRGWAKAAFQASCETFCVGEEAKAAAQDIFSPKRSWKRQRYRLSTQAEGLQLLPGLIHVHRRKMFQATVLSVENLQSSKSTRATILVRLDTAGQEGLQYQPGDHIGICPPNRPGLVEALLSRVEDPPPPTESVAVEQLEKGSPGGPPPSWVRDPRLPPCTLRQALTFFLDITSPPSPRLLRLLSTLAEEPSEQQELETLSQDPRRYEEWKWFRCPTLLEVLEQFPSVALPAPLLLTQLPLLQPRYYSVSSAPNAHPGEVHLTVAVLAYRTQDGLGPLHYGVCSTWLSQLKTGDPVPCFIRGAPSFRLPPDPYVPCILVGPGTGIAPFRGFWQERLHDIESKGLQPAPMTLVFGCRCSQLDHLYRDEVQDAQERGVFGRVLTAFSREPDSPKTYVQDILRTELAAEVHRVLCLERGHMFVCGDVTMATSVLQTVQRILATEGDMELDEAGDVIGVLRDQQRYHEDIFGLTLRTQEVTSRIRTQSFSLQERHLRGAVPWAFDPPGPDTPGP

[2] = Selectivity index, ratio of IC50 for recombinant bovine eNOS to IC50 for recombinant mouse iNOS
[3] = biological target: Nitric oxide synthase, inducible (Rattus norvegicus) (UniProt Q06518); assay: Ex vivo inhibition of iNOS in mesenteric vascular arteries isolated from LPS-induced septic shock Sprague-Dawley rat model assessed as increase in noradrenaline-mediated vasoconstriction by measuring changes in perfusion pressure at 100 uM preincubated for 30 mins followed by noradrenaline treatment
Sequence of Nitric oxide synthase, inducible (Rattus norvegicus) (Q06518 whole entry, the tested form may be a part): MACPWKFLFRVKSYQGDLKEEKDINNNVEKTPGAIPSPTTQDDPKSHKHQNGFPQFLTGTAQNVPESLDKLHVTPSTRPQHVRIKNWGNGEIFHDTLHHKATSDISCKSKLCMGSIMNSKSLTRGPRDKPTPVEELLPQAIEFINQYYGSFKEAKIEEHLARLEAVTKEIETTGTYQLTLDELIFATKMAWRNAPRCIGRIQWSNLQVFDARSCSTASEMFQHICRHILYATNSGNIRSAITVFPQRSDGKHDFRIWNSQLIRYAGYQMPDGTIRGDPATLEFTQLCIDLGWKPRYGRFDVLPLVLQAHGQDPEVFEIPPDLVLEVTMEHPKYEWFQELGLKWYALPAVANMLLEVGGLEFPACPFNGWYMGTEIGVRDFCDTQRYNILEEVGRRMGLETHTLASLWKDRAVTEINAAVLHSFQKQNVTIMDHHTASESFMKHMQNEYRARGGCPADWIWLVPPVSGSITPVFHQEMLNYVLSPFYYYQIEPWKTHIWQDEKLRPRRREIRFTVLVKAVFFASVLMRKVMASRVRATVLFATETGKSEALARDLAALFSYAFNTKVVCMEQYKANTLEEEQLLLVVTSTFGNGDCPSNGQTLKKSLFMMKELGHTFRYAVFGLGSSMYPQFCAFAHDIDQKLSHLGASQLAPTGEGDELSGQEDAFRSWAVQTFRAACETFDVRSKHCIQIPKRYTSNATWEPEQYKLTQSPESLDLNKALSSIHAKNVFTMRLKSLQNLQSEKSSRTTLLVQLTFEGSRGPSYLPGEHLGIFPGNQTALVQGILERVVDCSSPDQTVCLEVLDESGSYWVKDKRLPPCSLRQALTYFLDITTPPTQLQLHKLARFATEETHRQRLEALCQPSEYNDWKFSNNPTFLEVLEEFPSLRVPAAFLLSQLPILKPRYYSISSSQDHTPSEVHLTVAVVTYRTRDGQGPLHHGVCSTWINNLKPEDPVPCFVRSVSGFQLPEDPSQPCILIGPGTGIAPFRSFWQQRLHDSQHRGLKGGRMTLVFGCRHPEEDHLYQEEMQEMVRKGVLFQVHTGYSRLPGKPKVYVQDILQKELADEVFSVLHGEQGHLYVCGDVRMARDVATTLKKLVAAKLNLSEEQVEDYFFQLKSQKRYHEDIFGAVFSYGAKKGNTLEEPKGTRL

[4] = Cytotoxicity against rat CTX/TNA2 cells assessed as inhibition of cell proliferation at 1.5 mM after 24 hrs by MTT assay relative to control; format: cell-based
C6 [5] = assay: Cytotoxicity against rat C6 cells assessed as cell proliferation at 1 mM after 24 hrs by MTT assay relative to control; format: functional; details: C6, 24 h, read-out: Activity
C6 [6] = assay: Cytotoxicity against rat C6 cells assessed as cell proliferation at 1.5 mM after 24 hrs by MTT assay relative to control; format: functional; details: C6, 24 h, read-out: Activity
C6 [7] = assay: Cytotoxicity against rat C6 cells assessed as inhibition of cell proliferation after 24 to 48 hrs by MTT assay; format: functional, cell-based
C6 [8] = assay: Cytotoxicity against rat C6 cells assessed as cell proliferation at 0.5 mM after 48 hrs by MTT assay relative to control; format: functional; details: C6, 48 h, read-out: Activity
[9] = Cytotoxicity against rat CTX/TNA2 cells assessed as inhibition of cell proliferation up to 72 hrs by MTT assay; format: cell-based
C6 [10] = assay: Cytotoxicity against rat C6 cells assessed as cell proliferation up to 2 mM after 48 hrs by MTT assay relative to control; format: functional
[11] = Cytotoxicity against rat CTX/TNA2 cells assessed as inhibition of cell proliferation at 2 mM after 24 hrs by MTT assay relative to control; format: cell-based
C6 [12] = assay: Cytotoxicity against rat C6 cells assessed as cell proliferation at 2 mM after 24 hrs by MTT assay relative to control; format: functional; details: C6, 24 h, read-out: Activity
C6 [13] = assay: Cytotoxicity against rat C6 cells assessed as cell proliferation at 0.75 mM after 72 hrs by MTT assay relative to control; format: functional; details: C6, 72 h, read-out: Activity

IC50 [1] [µM] | IC50 (Nitric oxide synthase 3) [µM] | Ratio IC50 [2] | SMILES | other results
> 10 | – | – | CC(=N)NCc1cccc(CNC(=O)[C@@H](N)CO)c1 | –
> 10 | – | – | CC(=N)NCc1cccc(CNC(=O)[C@@H](N)CCC(N)=O)c1 | –
> 10 | – | – | CC(=N)NCc1cccc(CNC(=O)[C@@H](N)CS)c1 | –
0.45 | > 1000 | > 2220 | CC(=N)NCc1cccc(CNC(=O)[C@@H](N)CCCNC(=N)N)c1 | –
0.276 | > 1000 | > 3600 | CC(=N)NCc1cccc(CNC(=O)[C@H](C)N)c1 | –
1.23 | 10 | 8 | CC(=N)NCc1cccc(CNC(=O)[C@@H](N)CCC(=O)O)c1 | –
– | – | – | COC(=O)[C@@H](N)CCCNC(=N)N[N+](=O)[O-] | inhibition [3]: Active
– | – | – | CC(=N)NCc1cccc(CN)c1 [1400W] | inhibition at 24 h, 1500 µM [4]: ≤ 67.4%; growth at 1000 µM (C6 [5]): 83.2%; growth at 1500 µM (C6 [6]): 70.6%; inhibition (C6 [7]): Dose-dependent effect; growth at 500 µM (C6 [8]): 68.9%; Activity [9]: Dose-dependent effect; Activity (C6 [10]): 35.66%; inhibition at 24 h, 2000 µM [11]: 69.2%; growth at 2000 µM (C6 [12]): 55.2%; growth at 750 µM (C6 [13]): 64.6%
> 10 | – | – | CC(=N)NCc1cccc(CNC(=O)[C@@H](N)Cc2c[nH]c3ccccc23)c1 | –
> 10 | – | – | CSCC[C@H](N)C(=O)NCc1cccc(CNC(C)=N)c1 | –
0.17 | > 1000 | > 5850 | CC[C@H](C)[C@H](N)C(=O)NCc1cccc(CNC(C)=N)c1 | –

From ChEMBL document CHEMBL4152230, “Discovery of N-{3-[(ethanimidoylamino)methyl]benzyl}-l-prolinamide dihydrochloride: A new potent and selective inhibitor of the inducible nitric oxide synthase as a promising agent for the therapy of malignant glioma” (Eur J Med Chem, 2018)
